From US5480869A, “Anti-inflammatory peptide analogs and treatment to inhibit vascular leakage in injured tissues” (The Regents of the University of California, priority 1993, dated 1996)
Where “and” joins values, the source holds several entries; their conditions need not be identical. Equal values may be shown once. Where a SMILES comes first, the peptide text is derived from it. [ ]: non-standard residue; d: D form.

System: rat's hind paw heat-edema
Test: heat-induced paw edema in pentobarbital-anesthetized rat (58° C. water, 1 minute)
Format: in vivo
Details: dose 1 mg/kg i.v., ten minutes before 58° C. water for 1 minute; edema measured 30 minutes after heat
Procedure: The inventive peptides were dissolved either in saline or saline acidified with 0.1 M acetic acid and injected intravenously into a pentobarbital-anesthetized rat. The rat's hind paw was then immersed in 58°-60° C. water for 1 minute and the increase in paw weight, as an index of edema and swelling, was measured 30 minutes later. For some peptides, the ability of the substances to inhibit vascular leakage after muscle injury was also tested. Normally, the paw weight of saline-treated animals (controls) will increase by about 65-95% after heat injury. The increase in weight is relative to the contralateral non-heated paw.
In screening the bioactivity of new peptides, a dose of 5 mg/kg i.v. was initially used. In later studies, when greater activity was expected, a screening dose of 1 to 2 mg/kg i.v. was used.
Thus, each peptide was injected intravenously (at the amounts specified, usually 1 or 5 mg/kg, or by full dose-response analysis) 10 minutes (for 7/8-mers) or one hour (for 11-mers) before immersion of the right paw in 58° C. water, for 1 minute, and weights of both paws were obtained 30minutes later. To obtain statistical accuracy, four to six animals were used in each group. The % wt increase was calculated as (wt of heated paw--wt of unheated paw/wt of unheated paw)×100 and converted to % of the saline control group values, which were run concurrently.

Row | Molecule | Heat-Edema % Saline Values
1 | CC[C@H](C)[C@H](NC(=O)[C@@H](CCCCN)NC(=O)[C@H](CC(C)C)NC(=O)[C@H](CC(C)C)NC(=O)[C@H](CCCCN)NC(=O)[C@H](CCCNC(=N)N)NC(C)=O)C(=O)N[C@H](CC(C)C)C(N)=O [Composition 19] (HELM PEPTIDE1{[ac].R.K.L.L.[dK].I.[dL].[am]}$$$$V2.0) | 23 ± 8 % Saline Values

Same assay, conditions: dose 2 mg/kg i.v., ten minutes before 58° C. water for 1 minute; edema measured 30 minutes after heat

Row | Molecule | Heat-Edema % Saline Values
2 | CC[C@H](C)[C@H](NC(=O)[C@H]1CCCN1C(=O)[C@H](CCSC)NC(=O)[C@H](CC(C)C)NC(=O)[C@H](CCCCN)NC(=O)[C@@H](N)CCCNC(=N)N)C(=O)N[C@H](CC(C)C)C(N)=O [Composition 14] (HELM PEPTIDE1{R.K.L.M.[dP].I.[dL].[am]}$$$$V2.0) | 21 ± 3 % Saline Values
3 | CC[C@H](C)[C@H](NC(=O)[C@H](Cc1ccc(OC)cc1)NC(=O)[C@H](CCSC)NC(=O)[C@H](CC(C)C)NC(=O)[C@H](CCCCN)NC(=O)[C@@H](CCCCN)NC(C)=O)C(=O)N[C@H](CC(C)C)C(N)=O [Composition 16] (Ac-[dK]KLMY(Me)I[dL]-NH2) | 67 ± 11 % Saline Values
4 | CC[C@H](C)[C@H](NC(=O)[C@H](Cc1ccc(OC)cc1)NC(=O)[C@@H](NC(=O)[C@H](CC(C)C)NC(=O)[C@H](CCCCN)NC(=O)[C@H](CCCNC(=N)N)NC(C)=O)C(C)C)C(=O)N[C@H](CC(C)C)C(N)=O [Composition 17] (Ac-RKLVY(Me)I[dL]-NH2) | 49 ± 9 % Saline Values
5 | CC[C@H](C)[C@H](NC(=O)[C@H](Cc1ccc(OC)cc1)NC(=O)[C@H](CCSC)NC(=O)[C@H](CC(C)C)NC(=O)[C@H](CCCCN)NC(=O)[C@H](CCCNC(=N)N)NC(C)=O)C(=O)N[C@H](CC(C)C)C(N)=O [Composition 18] (Ac-RKLMY(Me)I[dL]-NH2) | 27 ± 1 % Saline Values

Same assay, conditions: dose 5 mg/kg i.v., ten minutes before 58° C. water for 1 minute; edema measured 30 minutes after heat; N.S. = not different from saline

Row | Molecule | Heat-Edema % Saline Values
6 | CC[C@H](C)[C@H](NC(=O)[C@H](Cc1ccc(O)cc1)NC(=O)[C@H](CCSC)NC(=O)[C@H](CC(C)C)NC(=O)[C@H](CCCCN)NC(=O)[C@@H](N)CCCNC(=N)N)C(=O)N[C@H](CC(C)C)C(N)=O [Composition 5] (HELM PEPTIDE1{R.K.L.M.Y.I.[dL].[am]}$$$$V2.0) | 70 ± 9 % Saline Values
7 | CC[C@H](C)[C@H](NC(=O)[C@H](CC(C)C)NC(=O)[C@H](CCSC)NC(=O)[C@H](CC(C)C)NC(=O)[C@H](CCCCN)NC(=O)[C@@H](N)CCCNC(=N)N)C(=O)N[C@H](CC(C)C)C(N)=O [Composition 6] (HELM PEPTIDE1{R.K.L.M.L.I.[dL].[am]}$$$$V2.0) | 67 ± 10 % Saline Values
8 | CC[C@H](C)[C@H](NC(=O)[C@H](Cc1c[nH]c2ccccc12)NC(=O)[C@H](CCSC)NC(=O)[C@H](CC(C)C)NC(=O)[C@H](CCCCN)NC(=O)[C@@H](N)CCCNC(=N)N)C(=O)N[C@H](CC(C)C)C(N)=O [Composition 7] (HELM PEPTIDE1{R.K.L.M.W.I.[dL].[am]}$$$$V2.0) | 38 ± 5 % Saline Values
9 | CC[C@H](C)[C@H](NC(=O)[C@H](CCCCN)NC(=O)[C@H](CC(C)C)NC(=O)[C@H](CC(C)C)NC(=O)[C@H](CCCCN)NC(=O)[C@@H](N)CCCNC(=N)N)C(=O)N[C@H](CC(C)C)C(N)=O [Composition 8] (HELM PEPTIDE1{R.K.L.L.K.I.[dL].[am]}$$$$V2.0) | 38 ± 10 % Saline Values
10 | CC[C@H](C)[C@H](NC(=O)[C@H](CCCNC(=N)N)NC(=O)[C@H](CC(C)C)NC(=O)[C@H](CC(C)C)NC(=O)[C@H](CCCCN)NC(=O)[C@@H](N)CCCNC(=N)N)C(=O)N[C@H](CC(C)C)C(N)=O [Composition 9] (HELM PEPTIDE1{R.K.L.L.R.I.[dL].[am]}$$$$V2.0) | 18 ± 3 % Saline Values
11 | CC[C@H](C)[C@H](NC(=O)[C@H](Cc1ccc(F)cc1)NC(=O)[C@H](CC(C)C)NC(=O)[C@H](CC(C)C)NC(=O)[C@H](CCCCN)NC(=O)[C@@H](N)CCCNC(=N)N)C(=O)N[C@H](CC(C)C)C(N)=O [Composition 10] (HELM PEPTIDE1{R.K.L.L.[O=C([C@H](Cc1ccc(F)cc1)N[*:1])[*:2]].I.[dL].[am]}$$$$V2.0) | 54 ± 11 % Saline Values
12 | CC[C@H](C)[C@H](NC(=O)[C@H](Cc1ccc(I)cc1)NC(=O)[C@H](CC(C)C)NC(=O)[C@H](CC(C)C)NC(=O)[C@H](CCCCN)NC(=O)[C@@H](N)CCCNC(=N)N)C(=O)N[C@H](CC(C)C)C(N)=O [Composition 11] (HELM PEPTIDE1{R.K.L.L.[O=C([C@H](Cc1ccc(I)cc1)N[*:1])[*:2]].I.[dL].[am]}$$$$V2.0) | 49 ± 6 % Saline Values
13 | CC[C@H](C)[C@H](NC(=O)[C@H](Cc1ccc([N+](=O)[O-])cc1)NC(=O)[C@H](CC(C)C)NC(=O)[C@H](CC(C)C)NC(=O)[C@H](CCCCN)NC(=O)[C@@H](N)CCCNC(=N)N)C(=O)N[C@H](CC(C)C)C(N)=O [Composition 12] (HELM PEPTIDE1{R.K.L.L.[O=C([C@H](Cc1ccc([N+](=O)[O-])cc1)N[*:1])[*:2]].I.[dL].[am]}$$$$V2.0) | 41 ± 6 % Saline Values

Same assay, conditions: dose 5 mg/kg i.v., ten minutes before 58° C. water for 1 minute; edema measured 30 minutes after heat; N.S. = not different from saline; 5 mg/kg

Row | Molecule | Heat-Edema % Saline Values
14 | CC[C@H](C)[C@H](NC(=O)[C@H](Cc1ccc(Cl)cc1)NC(=O)[C@H](CC(C)C)NC(=O)[C@H](CC(C)C)NC(=O)[C@H](CCCCN)NC(=O)[C@@H](N)CCCNC(=N)N)C(=O)N[C@H](CC(C)C)C(N)=O [Composition 13] (HELM PEPTIDE1{R.K.L.L.[O=C([C@H](Cc1ccc(Cl)cc1)N[*:1])[*:2]].I.[dL].[am]}$$$$V2.0) | 15 ± 5 % Saline Values and 15 % Saline Values

Same assay, conditions: heat-edema, relative to saline controls

Row | Molecule | anti-inflammatory activity, result in words
15 | CC[C@H](C)[C@H](NC(=O)[C@H](Cc1ccc(OC)cc1)NC(=O)[C@H](CCSC)NC(=O)[C@H](CC(C)C)NC(=O)[C@H](CCCCN)NC(=O)[C@@H](CCCCN)NC(C)=O)C(=O)N[C@H](CC(C)C)C(N)=O [Composition 16] (Ac-[dK]KLMY(Me)I[dL]-NH2) | retention of activity
16 | CC[C@H](C)[C@H](NC(=O)[C@H](Cc1ccc(OC)cc1)NC(=O)[C@@H](NC(=O)[C@H](CC(C)C)NC(=O)[C@H](CCCCN)NC(=O)[C@H](CCCNC(=N)N)NC(C)=O)C(C)C)C(=O)N[C@H](CC(C)C)C(N)=O [Composition 17] (Ac-RKLVY(Me)I[dL]-NH2) | retains activity, albeit at a lower potency
17 | CC[C@H](C)[C@H](NC(=O)[C@H](Cc1ccc(OC)cc1)NC(=O)[C@H](CCSC)NC(=O)[C@H](CC(C)C)NC(=O)[C@H](CCCCN)NC(=O)[C@H](CCCNC(=N)N)NC(C)=O)C(=O)N[C@@H](C(N)=O)C(C)C [Composition 25] (Ac-RKLMY(Me)I[dV]-NH2) | retains activity
18 | CC[C@H](C)[C@H](NC(=O)[C@H](CCCNC(=N)N)NC(=O)[C@H](CCCNC(=N)N)NC(C)=O)C(=O)N[C@H](C(=O)N[C@@H](Cc1ccc(OC)cc1)C(=O)N[C@H](C(=O)N[C@H](CC(C)C)C(N)=O)[C@@H](C)CC)[C@@H](C)CC [Composition 26] (Ac-RRIIY(Me)I[dL]-NH2) | potent anti-inflammatory properties

Same assay, conditions: i.v.; 11-mers, injected one hour before 58° C. water for 1 minute; paw weight 30 minutes later; Table 1

Row | Molecule | ED50 (95% confidence limits)
19 | 1ATyRKLL(β-thienyl-D--Ala)Il-NH2 | 0.015 (0.006-0.036) mg/kg

Same assay, conditions: i.y. [sic]; 7/8-mers, ten minute interval between administration and 58° C. water for 1 minute; edema 30 minutes after heat; Table 3

Row | Molecule | ED50 (95% confidence limits)
20 | CC[C@H](C)[C@H](NC(=O)[C@@H](Cc1c[nH]cn1)NC(=O)[C@H](CC(C)C)NC(=O)[C@H](CC(C)C)NC(=O)[C@H](CCCCN)NC(=O)[C@@H](N)CCCNC(=N)N)C(=O)N[C@H](CC(C)C)C(N)=O [Composition 20] (HELM PEPTIDE1{R.K.L.L.[dH].I.[dL].[am]}$$$$V2.0) | 2.3 (1.2-4.2) mg/kg
21 | CC[C@H](C)[C@H](NC(=O)[C@@H](CCCNC(=N)N)NC(=O)[C@H](CC(C)C)NC(=O)[C@H](CC(C)C)NC(=O)[C@H](CCCCN)NC(=O)[C@@H](N)CCCNC(=N)N)C(=O)N[C@H](CC(C)C)C(N)=O [Composition 21] (HELM PEPTIDE1{R.K.L.L.[dR].I.[dL].[am]}$$$$V2.0) | 2.0 (0.80-5.0) mg/kg
22 | CC[C@H](C)[C@H](NC(=O)[C@@H](CC(C)C)NC(=O)[C@H](CC(C)C)NC(=O)[C@H](CC(C)C)NC(=O)[C@H](CCCCN)NC(=O)[C@@H](N)CCCNC(=N)N)C(=O)N[C@H](CC(C)C)C(N)=O [Composition 23] (HELM PEPTIDE1{R.K.L.L.[dL].I.[dL].[am]}$$$$V2.0) | 1.3 (0.50-3.6) mg/kg
23 | CC[C@H](C)[C@H](NC(=O)[C@@H](Cc1c[nH]c2ccccc12)NC(=O)[C@H](CC(C)C)NC(=O)[C@H](CC(C)C)NC(=O)[C@H](CCCCN)NC(=O)[C@@H](N)CCCNC(=N)N)C(=O)N[C@H](CC(C)C)C(N)=O [Composition 24] (HELM PEPTIDE1{R.K.L.L.[dW].I.[dL].[am]}$$$$V2.0) | 0.82 (0.56-1.2) mg/kg
24 | CC[C@H](C)[C@H](NC(=O)[C@H](Cc1ccc(OC)cc1)NC(=O)[C@H](CCSC)NC(=O)[C@H](CC(C)C)NC(=O)[C@H](CCCCN)NC(=O)[C@H](CCCNC(=N)N)NC(C)=O)C(=O)N[C@@H](C(N)=O)C(C)C [Composition 25] (Ac-RKLMY(Me)I[dV]-NH2) | 1.0 (0.52-1.9) mg/kg
25 | CC[C@H](C)[C@H](NC(=O)[C@H](CCCNC(=N)N)NC(=O)[C@H](CCCNC(=N)N)NC(C)=O)C(=O)N[C@H](C(=O)N[C@@H](Cc1ccc(OC)cc1)C(=O)N[C@H](C(=O)N[C@H](CC(C)C)C(N)=O)[C@@H](C)CC)[C@@H](C)CC [Composition 26] (Ac-RRIIY(Me)I[dL]-NH2) | 0.70 (0.40-1.2) mg/kg
26 | CC[C@H](C)[C@H](NC(=O)[C@H](Cc1ccc(OC)cc1)NC(=O)[C@H](CCSC)NC(=O)[C@H](CC(C)C)NC(=O)[C@H](CCCCN)NC(=O)[C@@H](CCCNC(=N)N)NC(C)=O)C(=O)N[C@H](CC(C)C)C(N)=O [Composition 27] (Ac-[dR]KLMY(Me)I[dL]-NH2) | 0.52 (0.19-1.8) mg/kg
27 | CC[C@H](C)[C@H](NC(=O)[C@H](Cc1ccc(OC)cc1)NC(=O)[C@H](CCSC)NC(=O)[C@H](CC(C)C)NC(=O)[C@H](CCCCN)NC(=O)[C@H](CCCNC(=N)N)NC(=O)[C@H](Cc1ccc(OC)cc1)NC(C)=O)C(=O)N[C@H](CC(C)C)C(N)=O [Composition 29] (Ac-Y(Me)RKLMY(Me)I[dL]-NH2) | 0.22 (0.09-0.55) mg/kg
